Measured values taken from patent US11655235B2, “Pyrrolidine and piperidine compounds” (YUHAN CORPORATION, priority 2019, dated 2023).
Read-outs that look alike come from different tables or passages of the source.

What was measured:
Format in all cases: biochemical
Recombinant human FAP = biological target: T1, Recombinant human FAP (Homo sapiens, UniProt Q12884); assay: FAP inhibition, fluorogenic substrate Z-Gly-Pro-AMC
T1 construct: purchased R&D systems
T1 sequence (Q12884 1-760): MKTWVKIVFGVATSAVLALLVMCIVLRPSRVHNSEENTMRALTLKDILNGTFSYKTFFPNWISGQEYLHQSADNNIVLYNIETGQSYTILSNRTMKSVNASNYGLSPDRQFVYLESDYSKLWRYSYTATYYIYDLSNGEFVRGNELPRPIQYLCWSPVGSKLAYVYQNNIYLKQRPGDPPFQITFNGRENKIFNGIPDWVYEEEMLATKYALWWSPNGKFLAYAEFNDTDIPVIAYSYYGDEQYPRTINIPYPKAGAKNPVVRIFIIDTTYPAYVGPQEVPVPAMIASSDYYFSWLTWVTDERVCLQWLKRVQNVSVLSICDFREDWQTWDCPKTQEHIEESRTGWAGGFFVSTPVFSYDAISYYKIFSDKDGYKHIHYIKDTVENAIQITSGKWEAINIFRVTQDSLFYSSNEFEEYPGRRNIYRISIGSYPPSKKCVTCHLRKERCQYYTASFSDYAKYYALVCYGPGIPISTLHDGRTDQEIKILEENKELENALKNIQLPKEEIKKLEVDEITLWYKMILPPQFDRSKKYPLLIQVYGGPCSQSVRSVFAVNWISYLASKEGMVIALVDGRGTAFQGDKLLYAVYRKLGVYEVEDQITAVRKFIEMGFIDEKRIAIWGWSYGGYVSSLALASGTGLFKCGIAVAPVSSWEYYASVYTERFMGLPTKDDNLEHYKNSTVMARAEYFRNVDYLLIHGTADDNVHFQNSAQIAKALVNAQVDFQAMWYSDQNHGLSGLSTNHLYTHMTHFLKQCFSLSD
Method in brief: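 Recombinant human FAP, 10 ng per reaction, in 50 mM Tris pH 7.5 with 1 M NaCl and 1 mg/ml BSA at 25° C; substrate Z-Gly-Pro-AMC, ≤0.1% DMSO. AMC fluorescence read at ex 380/em 460 nm; % signal-rate decrease vs no-inhibitor control, 8-point curves fitted to a four-parameter logistic for IC50.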

recombinant human DPP7 = biological target: T2, recombinant human DPP7 (Homo sapiens, UniProt Q9UHL4); assay: DPP7 inhibition, fluorogenic substrate Lys-Pro-AMC
T2 construct: purchased R&D Systems
Method in brief: (§1)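 Enzyme per reaction: 50 ng DPP9, 20 ng DPP8, 10 ng each DPP7 and PREP. Compounds were serially diluted (8 points, up to 0.5% DMSO) and incubated at 25 °C.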

recombinant human DPP8 = biological target: T3, recombinant human DPP8 (Homo sapiens, UniProt Q6V1X1); assay: DPP8 inhibition, fluorogenic substrate Z-Ala-Pro-AMC
T3 construct: purchased PBS Bioscience
Procedure: The compounds according to the present technology were evaluated in terms of the inhibitory effect on the activity of dipeptidyl peptidases including FAP by using a substrate producing fluorescent substances upon enzymatic decomposition. The test was conducted at 25° C. to get a final reaction volume of 100 μL in a 96 black well plate. […] Briefly, the test compounds were dissolved in dimethyl sulfoxide (DMSO) at a concentration of 20 mM and then subjected to serial dilution, thereby creating an 8 point curve. As for the control group, a 6 point curve created by serial dilution of Talabostat in the same buffer solution was used. Fluorescence intensity was measured using a microplate reader (Flexstation3, Molecular Devices) under the wavelength condition exciting at 380 nm and reading the emission at 460 nm. The inhibitory effect of the test compounds was measured as a decrease (%) in the signal rate as compared to the control group without any inhibitor. Data was fixed to a logistic model with four variables and IC50 value was calculated using GraphPad Prism program. As for recombinant human DPP4 (R&D Systems), 25 mM tris (pH 8.0) buffer as a buffer solution and H-Gly-Pro-AMC (Bachem) as a substrate were used. As for recombinant human DPP7 (R&D Systems), 25 mM MES (pH 6.0) buffer as a buffer solution and Lys-Pro-AMC (Bachem) as a substrate were used. As for recombinant human DPP8 (PBS Bioscience), as a buffer solution, a 10 mM tris (pH 7.4) buffer comprising 10 mM of magnesium chloride and 0.05% of Tween 20, and Z-Ala-Pro-AMC (BPS Bioscience) as a substrate were used. As for recombinant human DPP9 (R&D Systems), a 25 mM tris (pH 8.0) buffer as a buffer solution and H-Gly-Pro-AMC (Bachem) as a substrate were used. As for recombinant human PREP (R&D System), as a buffer solution, a 25 mM tris (pH 7.5) buffer comprising 250 mM sodium chloride and 2.5 mM DTT (Dithiolthreitol), and Z-Gly-Pro-AMC (Bachem) as a substrate were used. The evaluation was made by using 10 ng of DPP4, PDD7, and PREP, 20 ng of DPP8, and 50 ng of DPP9 based on the final reaction. In the evaluation of DPP4, the test compounds were subjected to serial dilution in a buffer under the condition containing up to 0.1% of DMSO. In the evaluation of DPP7, DPP8, DPP9, and PREP, the test compounds were subjected to serial dilution in each buffer under the condition containing up to 0.5% of DMSO.

recombinant human DPP9 = biological target: T4, recombinant human DPP9 (Homo sapiens, UniProt Q86TI2); assay: DPP9 inhibition, fluorogenic substrate H-Gly-Pro-AMC
T4 construct: purchased R&D Systems
Method in brief: as §1

recombinant human PREP = biological target: T5, recombinant human PREP (Homo sapiens, UniProt P48147); assay: PREP inhibition, fluorogenic substrate Z-Gly-Pro-AMC; details: Inhibitory Activity (IC50, nM) PREP
T5 construct: purchased R&D System
T5 sequence (P48147 1-710): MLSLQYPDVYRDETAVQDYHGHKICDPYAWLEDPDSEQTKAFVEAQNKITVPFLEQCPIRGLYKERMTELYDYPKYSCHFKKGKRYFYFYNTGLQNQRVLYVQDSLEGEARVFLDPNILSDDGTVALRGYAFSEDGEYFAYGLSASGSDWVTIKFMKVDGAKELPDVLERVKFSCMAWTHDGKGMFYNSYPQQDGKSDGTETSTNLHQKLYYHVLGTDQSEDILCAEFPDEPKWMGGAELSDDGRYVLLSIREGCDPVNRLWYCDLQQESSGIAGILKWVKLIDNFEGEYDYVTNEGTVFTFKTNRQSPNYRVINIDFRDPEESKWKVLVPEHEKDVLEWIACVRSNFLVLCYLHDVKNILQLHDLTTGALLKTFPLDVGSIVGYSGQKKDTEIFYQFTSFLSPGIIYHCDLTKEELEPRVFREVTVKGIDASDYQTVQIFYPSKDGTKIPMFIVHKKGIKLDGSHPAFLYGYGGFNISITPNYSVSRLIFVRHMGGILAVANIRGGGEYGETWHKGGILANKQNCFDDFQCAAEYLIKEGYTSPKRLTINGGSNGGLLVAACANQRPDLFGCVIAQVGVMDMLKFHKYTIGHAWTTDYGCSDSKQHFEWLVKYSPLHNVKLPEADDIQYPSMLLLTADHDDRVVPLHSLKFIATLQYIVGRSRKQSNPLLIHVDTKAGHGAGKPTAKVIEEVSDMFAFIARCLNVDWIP
Method in brief: as §1

[1] = 25° C., Z-Gly-Pro-AMC substrate
[2] = 25° C., Z-Ala-Pro-AMC substrate
[3] = 25° C., H-Gly-Pro-AMC substrate
[4] = recombinant human FAP, substrate Z-Gly-Pro-AMC

T3 sequence (Q6V1X1 whole entry): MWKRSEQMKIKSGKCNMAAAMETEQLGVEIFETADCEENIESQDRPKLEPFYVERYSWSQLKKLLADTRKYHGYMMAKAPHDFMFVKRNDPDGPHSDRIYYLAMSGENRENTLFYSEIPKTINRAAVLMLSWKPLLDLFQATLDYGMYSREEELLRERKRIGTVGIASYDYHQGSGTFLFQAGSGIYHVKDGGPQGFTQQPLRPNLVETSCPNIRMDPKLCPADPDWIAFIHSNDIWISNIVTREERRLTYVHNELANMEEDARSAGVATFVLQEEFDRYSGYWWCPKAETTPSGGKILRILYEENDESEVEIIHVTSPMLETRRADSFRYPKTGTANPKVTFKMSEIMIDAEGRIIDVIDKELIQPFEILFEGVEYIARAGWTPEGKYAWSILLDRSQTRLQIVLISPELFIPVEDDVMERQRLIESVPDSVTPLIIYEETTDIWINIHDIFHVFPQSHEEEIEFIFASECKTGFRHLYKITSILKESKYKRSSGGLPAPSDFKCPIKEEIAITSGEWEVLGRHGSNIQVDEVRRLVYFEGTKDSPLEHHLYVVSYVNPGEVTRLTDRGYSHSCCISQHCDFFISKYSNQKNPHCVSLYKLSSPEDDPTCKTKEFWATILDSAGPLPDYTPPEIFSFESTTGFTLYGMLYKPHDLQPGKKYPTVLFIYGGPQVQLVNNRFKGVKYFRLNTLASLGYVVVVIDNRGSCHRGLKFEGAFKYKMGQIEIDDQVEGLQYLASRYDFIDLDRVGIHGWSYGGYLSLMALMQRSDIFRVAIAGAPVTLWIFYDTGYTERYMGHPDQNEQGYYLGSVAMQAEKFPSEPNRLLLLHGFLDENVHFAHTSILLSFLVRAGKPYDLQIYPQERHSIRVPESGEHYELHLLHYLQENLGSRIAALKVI
T4 sequence (Q86TI2 whole entry): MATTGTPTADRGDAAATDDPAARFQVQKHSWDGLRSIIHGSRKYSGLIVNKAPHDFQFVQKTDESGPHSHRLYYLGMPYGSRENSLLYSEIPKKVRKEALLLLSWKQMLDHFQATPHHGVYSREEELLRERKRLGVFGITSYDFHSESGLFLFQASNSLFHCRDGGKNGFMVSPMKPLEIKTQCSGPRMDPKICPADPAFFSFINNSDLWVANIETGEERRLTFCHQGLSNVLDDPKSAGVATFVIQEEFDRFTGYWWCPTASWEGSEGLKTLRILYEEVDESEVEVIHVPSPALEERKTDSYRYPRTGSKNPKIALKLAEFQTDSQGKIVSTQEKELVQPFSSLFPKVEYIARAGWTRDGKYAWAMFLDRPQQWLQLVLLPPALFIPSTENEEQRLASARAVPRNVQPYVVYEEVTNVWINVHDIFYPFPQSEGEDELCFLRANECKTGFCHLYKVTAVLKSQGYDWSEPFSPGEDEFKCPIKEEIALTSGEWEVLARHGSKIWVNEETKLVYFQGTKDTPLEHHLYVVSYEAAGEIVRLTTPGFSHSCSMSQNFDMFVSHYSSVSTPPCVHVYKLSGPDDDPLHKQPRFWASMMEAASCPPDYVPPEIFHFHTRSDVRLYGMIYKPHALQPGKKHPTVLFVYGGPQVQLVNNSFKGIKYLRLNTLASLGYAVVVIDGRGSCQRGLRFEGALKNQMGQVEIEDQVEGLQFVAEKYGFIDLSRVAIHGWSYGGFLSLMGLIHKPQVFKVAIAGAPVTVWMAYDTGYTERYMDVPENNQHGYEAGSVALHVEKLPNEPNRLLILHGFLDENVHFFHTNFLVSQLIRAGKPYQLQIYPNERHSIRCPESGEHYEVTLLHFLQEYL

SMILES | IC50 (Recombinant human FAP; [1]) | IC50 (recombinant human DPP7) | IC50 (recombinant human DPP8; [2]) | IC50 (recombinant human DPP9; [3]) | IC50 (recombinant human PREP; [1]) | IC50 (Recombinant human FAP; [4]) | IC50 (recombinant human DPP7; recombinant human DPP7) | IC50 (recombinant human DPP8; recombinant human DPP8) | IC50 (recombinant human DPP9; recombinant human DPP9) | IC50 (recombinant human PREP; recombinant human PREP)
Cc1c(N(C)[C@H]2CCN(CC(=O)N3CCC[C@H]3C#N)C2)cnc2ccccc12 [Example 149, (2S)-1-[2-[(3S)-3-[methyl-(4-methyl-3-quinolyl)amino]pyrrolidin-1-yl]acetyl]pyrrolidine-2-carbonitrile] | 0.0099 µM | 3.97 µM | ≥ 100 µM | 49.1 µM | 1620 nM | – | – | – | – | –
COc1ccc2ncc(N(C)[C@H]3CCN(CC(=O)N4CCC[C@H]4C#N)C3)cc2c1 [Example 152, (S)-1-(2-((S)-3-((6-methoxyquinolin-3-yl)(methyl)amino)pyrrolidin-1-yl)acetyl)pyrrolidine-2-carbonitrile] | 0.0025 µM | 1.66 µM | ≥ 100 µM | 29 µM | 4130 nM | – | – | – | – | –
COc1cccc2cc(N(C)[C@H]3CCN(CC(=O)N4CCC[C@H]4C#N)C3)cnc12 [Example 154, (S)-1-(2-((S)-3-((8-methoxyquinolin-3-yl)(methyl)amino)pyrrolidin-1-yl)acetyl)pyrrolidine-2-carbonitrile] | 0.0052 µM | 3.31 µM | 22 µM | 41.7 µM | 970 nM | – | – | – | – | –
N#C[C@@H]1C[C@H](F)CN1C(=O)CN1CC[C@@H](Nc2cccc3ncccc23)C1 [Example 166, (2S,4S)-4-fluoro-1-[2-[(3R)-3-(5-quinolylamino)pyrrolidin-1-yl]acetyl]pyrrolidine-2-carbonitrile] | – | – | – | – | – | 0.0021 µM | 0.958 µM | 6.16 µM | 1.83 µM | 769 nM
N#C[C@@H]1C[C@H](F)CN1C(=O)CN1CC[C@@H](Nc2ccnc3ccccc23)C1 [Example 170, (2S,4S)-4-fluoro-1-[2-[(3R)-3-(4-quinolylamino)pyrrolidin-1-yl]acetyl]pyrrolidine-2-carbonitrile] | – | – | – | – | – | 0.0035 µM | 0.302 µM | 14 µM | 2.7 µM | 7980 nM
N#C[C@@H]1C[C@H](F)CN1C(=O)CN1CCC(Nc2cncc3ccncc23)CC1 [Example 360, (2S,4S)-4-fluoro-1-[2-[4-(2,6-naphthyridin-4-ylamino)-1-piperidyl]acetyl]pyrrolidine-2-carbonitrile] | – | – | – | – | – | 0.0019 µM | 1.34 µM | ≥ 100 µM | 7.35 µM | 16400 nM

Next, values leading:

IC50 (Recombinant human FAP; [1]) | IC50 (recombinant human DPP7) | IC50 (recombinant human DPP8; [2]) | IC50 (recombinant human DPP9; [3]) | IC50 (recombinant human PREP; [1]) | IC50 (Recombinant human FAP; [4]) | IC50 (recombinant human DPP7; recombinant human DPP7) | IC50 (recombinant human DPP8; recombinant human DPP8) | IC50 (recombinant human DPP9; recombinant human DPP9) | IC50 (recombinant human PREP; recombinant human PREP) | SMILES
0.0073 µM | 10.8 µM | 86.6 µM | 29.3 µM | 3810 nM | – | – | – | – | – | CN(c1cccc2cnccc12)[C@H]1CCN(CC(=O)N2CCC[C@H]2C#N)C1 [Example 148, (2S)-1-[2-[(3S)-3-[5-isoquinolyl(methyl)amino]pyrrolidin-1-yl]acetyl]pyrrolidine-2-carbonitrile]
0.0011 µM | 1.83 µM | ≥ 100 µM | 39.6 µM | 2640 nM | – | – | – | – | – | Cc1ccc2ncc(N(C)[C@H]3CCN(CC(=O)N4CCC[C@H]4C#N)C3)cc2c1 [Example 150, (2S)-1-[2-[(3S)-3-[methyl-(6-methyl-3-quinolyl)amino]pyrrolidin-1-yl]acetyl]pyrrolidine-2-carbonitrile]
0.0016 µM | 2.55 µM | 12.3 µM | 23.9 µM | 3090 nM | – | – | – | – | – | CN(c1cnc2ccc(F)cc2c1)[C@H]1CCN(CC(=O)N2CCC[C@H]2C#N)C1 [Example 151, (S)-1-(2-((S)-3-((6-fluoroquinolin-3-yl)(methyl)amino)pyrrolidin-1-yl)acetyl)pyrrolidine-2-carbonitrile]
– | – | – | – | – | 0.0014 µM | 5.45 µM | 41.5 µM | 25.4 µM | 4250 nM | N#C[C@@H]1CCCN1C(=O)CN1CC[C@@H](Nc2cccc3ncccc23)C1 [Example 161, (S)-1-(2-((R)-3-(quinolin-5-ylamino)pyrrolidin-1-yl)acetyl)pyrrolidine-2-carbonitrile]
– | – | – | – | – | 0.0052 µM | 2.34 µM | ≥ 100 µM | 14.9 µM | 2610 nM | N#C[C@@H]1CCCN1C(=O)CN1CC[C@@H](Nc2ccc3ncccc3c2)C1 [Example 162, (2S)-1-[2-[(3R)-3-(6-quinolylamino)pyrrolidin-1-yl]acetyl]pyrrolidine-2-carbonitrile]
– | – | – | – | – | 0.0023 µM | 1.15 µM | ≥ 100 µM | 7.55 µM | 3970 nM | N#C[C@@H]1C[C@H](F)CN1C(=O)CN1CC[C@@H](Nc2cnc3ccccc3c2)C1 [Example 165, (2S,4S)-4-fluoro-1-[2-[(3R)-3-(3-quinolylamino)pyrrolidin-1-yl]acetyl]pyrrolidine-2-carbonitrile]
– | – | – | – | – | 0.0014 µM | 2.04 µM | 6.28 µM | 2.56 µM | 5860 nM | N#C[C@@H]1C[C@H](F)CN1C(=O)CN1CC[C@@H](Nc2ccc3ncccc3c2)C1 [Example 167, (2S,4S)-4-fluoro-1-[2-[(3R)-3-(6-quinolylamino)pyrrolidin-1-yl]acetyl]pyrrolidine-2-carbonitrile]
